Test results as given in US20250161273A1, “PHARMACEUTICAL COMPOSITION COMPRISING DIPHENYLDIAZOLE DERIVATIVES AND METHODS OF USE” (MODAG GMBH, priority 2022, published 2025).
Where two headings read alike, the source gives them in different places.

Assay: phase 1 study in patients with mild to moderate Parkinson's disease (PK, safety)
Assay type: in vivo, human
Conditions: for AR AUC (accumulation ratio, geometric mean): AUC(0-tau); for Frel AUC(0-24) / Frel Cmax: Day 9 fed vs Day 7 QD fasted; for concentration at 3 h: po; for Cmax / Tmax / AUC / concentration at 24 h / Tmax at 7 days / half-life at 7 days / half-life / AUC(0-t) / concentration at 12 h / AUC(0-inf): oral; for Cmax: read-out: Cmax (geometric mean); for AUC: read-out: AUC(0-tau) (geometric mean); for AUC(0-inf): read-out: AUC(0-inf) (geometric mean)
From the text: Study Title: A Single Part Study to Assess the Safety, Tolerability, Pharmacokinetics and Pharmacodynamics of Multiple Ascending Oral Doses of anle138b, and to Characterize the Effect of Food on the Pharmacokinetics of anle138b in Patients with Mild to Moderate Parkinson's Disease.
This was a two-center, double-blind, randomised, placebo-controlled study that enrolled twenty two (22) participants in cohorts (i.e. regimens) A-C. All completed the study per protocol. After completion of Cohorts A to C it was decided to add Cohorts D and E of 24 subjects. Cohort D expanded sample size of previous dosing regiments 150 mg and 300 mg QD and Cohort E administration of anle138b 300 mg for 28 days, under non fasted conditions.
Drug product used is described in section 1.3, supra, placebo was vehicle in capsule. Subjects were between 50 and 80 years of age with a diagnosis of idiopathic PD as defined by the Movement Disorders Society criteria (either fulfilling criteria for “Clinically Established PD” or for “Clinically Probable PD”). They had to present with Hoehn and Yahr stage I-III (i.e. able to walk unaided), and stable medication for PD for 1 month prior to inclusion and anticipated over the study period. The subjects were randomly assigned to receive one of three drug regimens, A, B or C, as follows: • Regimen A—150 mg (5×30 mg) anle138b oral capsules or matching placebo QD, for 7 consecutive days in the fasted state, followed by a single administration of 150 mg anle138b oral capsule or matching placebo on Day 9 in the fed state, • Regimen B—300 mg (10×30 mg) anle138b oral capsules or matching placebo QD, for 7 consecutive days in the fasted state, followed by a single administration of 300 mg anle138b oral capsule (10×30 mg capsules) or matching placebo on Day 9 in the fed state, • Regimen C—150 mg (5×30 mg) anle138b oral capsules or matching placebo BID (total 300 mg daily), […]
Primary endpoints provided safety and tolerability information for the test product by assessing: AEs, vital signs, ECGs, physical examinations and laboratory safety tests, and to provide additional safety and tolerability information for the test product taken also in the fed state by assessing: AEs, vital signs, ECGs, physical examinations and laboratory safety tests.
Secondary endpoints provided PK information for the test product in PD patients by assessing plasma exposure under fast and fed conditions.

[1] = PD patients, Regimen A 150 mg, Day 1, fasted
[2] = PD patients, Regimen B 300 mg, Day 1, fasted

SMILES: Brc1cccc(-c2cc(-c3ccc4c(c3)OCO4)n[nH]2)c1 [anle138b, 3-(1,3-benzodioxol-5-yl)-5-(3-bromophenyl)-1H-pyrazole]
- AR Cmax (accumulation ratio, geometric mean) (PD patients, Regimen A 150 mg QD, Day 7): 0.346
- AR AUC (accumulation ratio, geometric mean) (PD patients, Regimen A 150 mg QD, Day 7, tau 24 h): 0.371
- T1/2, individual subject values (PD patients, Regimen A 150 mg QD, Day 7, n = 2): 16.25 h
- maximum individual AUC(0-24) as % of the exposure limit in the protocol [1]: ~6.19%
- maximum individual Cmax as % of the exposure limit in the protocol [1]: approximately 24.9%
- Frel AUC(0-24) (PD patients, Regimen A 150 mg): 132%
- Frel Cmax (PD patients, Regimen A 150 mg): 104%
- Tmax (median) (PD patients, Regimen B 300 mg QD (row prints fed, title fasted state), Day 7): 1.6 h
- AR Cmax (accumulation ratio, geometric mean) (PD patients, Regimen B 300 mg QD, Day 7): 0.428
- AR AUC (accumulation ratio, geometric mean) (PD patients, Regimen B 300 mg QD, Day 7, tau 24 h): 0.351
- maximum individual AUC(0-24) as % of the exposure limit in the protocol [2]: ~8.4%
- maximum individual Cmax as % of the exposure limit in the protocol [2]: ~75.8%
- Frel AUC(0-24) (PD patients, Regimen B 300 mg): 109%
- Frel Cmax (PD patients, Regimen B 300 mg): 71.4%
- maximum individual Cmax as % of the exposure limit in the protocol (PD patients, Regimen C 150 mg BID, Day 1, fasted): ~26.4%
- maximum individual AUC as % of the exposure limit in the protocol (PD patients, Regimen C 150 mg BID, Day 1, fasted, AUC(0-12) vs limit based on AUC(0-24)): ~4.94%
- AR Cmax (accumulation ratio, geometric mean) (PD patients, Regimen C 150 mg BID, Day 7): 0.333
- AR AUC (accumulation ratio, geometric mean) (PD patients, Regimen C 150 mg BID, Day 7, tau 12 h): 0.299
- safety and tolerability (in words) (PD patients, doses up to 300 mg): safe and well tolerated
- concentration at 3 h (human, CSF, 300 mg, PD patients, multiple QD oral doses of 300 mg, fasted, 3 h post-dose on Day 5, read-out: CSF anle138b concentration (geometric mean)): 0.319 ng/mL
- Kp at 3 h (human, CSF/plasma, PD patients, multiple QD oral doses of 300 mg, fasted, 3 h post-dose on Day 5, read-out: CSF/plasma anle138b concentration ratio (geometric mean)): 0.0024
- Cmax (human, plasma, 150 mg, PD patients, Regimen A 150 mg QD (row prints fed, title fasted state), Day 1): ~462 ng/mL
- Tmax (human, plasma, 150 mg, PD patients, Regimen A 150 mg QD (row prints fed, title fasted state), Day 1, read-out: Tmax (median)): 1.25 h
- Tmax (human, plasma, 150 mg, PD patients, Regimen A 150 mg QD (row prints fed, title fasted state), Day 1, read-out: Tmax (range)): 1 to 1.5 h
- AUC (human, plasma, 150 mg, PD patients, Regimen A 150 mg QD (row prints fed, title fasted state), Day 1, tau 24 h): ~1040 ng·h/mL
- concentration at 24 h (human, plasma, 150 mg, PD patients, Regimen A 150 mg QD (row prints fed, title fasted state), Day 1, tau 24 h, read-out: Ctau (geometric mean)): 3.76 ng/mL
- Cmax (human, plasma, 150 mg, PD patients, Regimen A 150 mg QD (row prints fed, title fasted state), Day 7): ~160 ng/mL
- Tmax at 7 days (human, plasma, 150 mg, PD patients, Regimen A 150 mg QD (row prints fed, title fasted state), Day 7, read-out: Tmax (median)): 1 h
- Tmax at 7 days (human, plasma, 150 mg, PD patients, Regimen A 150 mg QD (row prints fed, title fasted state), Day 7, read-out: Tmax (range)): 1 to 2 h
- AUC (human, plasma, 150 mg, PD patients, Regimen A 150 mg QD (row prints fed, title fasted state), Day 7, tau 24 h): ~388 ng·h/mL
- concentration at 24 h (human, plasma, 150 mg, PD patients, Regimen A 150 mg QD (row prints fed, title fasted state), Day 7, tau 24 h, read-out: Ctau (geometric mean)): 1.86 ng/mL
- half-life at 7 days (human, plasma, 150 mg, PD patients, Regimen A 150 mg QD, Day 7, n = 2, read-out: T1/2, individual subject values (converted)): 17.1 h
- half-life (human, plasma, 150 mg, PD patients, Regimen A 150 mg single dose on Day 9, fed state, n = 3, read-out: T1/2 (geometric mean) (converted)): 15.9 h
- AUC(0-t) (human, plasma, 150 mg, PD patients, Regimen A 150 mg single dose on Day 9, fed state, read-out: AUC(0-24) (geometric mean)): 513 ng·h/mL
- AUC(0-t) (human, plasma, 150 mg, PD patients, Regimen A 150 mg single dose on Day 9, fed state, read-out: AUC(0-last) (geometric mean)): 542 ng·h/mL
- concentration at 24 h (human, plasma, 150 mg, PD patients, Regimen A 150 mg single dose on Day 9, fed state, read-out: C24 (geometric mean)): 1.87 ng/mL
- Cmax (human, plasma, 150 mg, PD patients, Regimen A 150 mg single dose on Day 9, fed state): 167 ng/mL
- Tmax (human, plasma, 150 mg, PD patients, Regimen A 150 mg single dose on Day 9, fed state, read-out: Tmax (median)): 3 h
- Tmax (human, plasma, 150 mg, PD patients, Regimen A 150 mg single dose on Day 9, fed state, read-out: Tmax (range)): 1.5 to 4 h
- Cmax (human, plasma, 150 mg, PD patients, Regimen C 150 mg BID, fast, Day 1): ~546 ng/mL
- Tmax (human, plasma, 150 mg, PD patients, Regimen C 150 mg BID, fast, Day 1, read-out: Tmax (median)): 1 h
- Tmax (human, plasma, 150 mg, PD patients, Regimen C 150 mg BID, fast, Day 1, read-out: Tmax (range)): 1 to 2 h
- AUC (human, plasma, 150 mg, PD patients, Regimen C 150 mg BID, fast, Day 1, tau 12 h): ~993 ng·h/mL
- concentration at 12 h (human, plasma, 150 mg, PD patients, Regimen C 150 mg BID, fast, Day 1, tau 12 h, read-out: Ctau (geometric mean)): 7.41 ng/mL
- Cmax (human, plasma, 150 mg, PD patients, Regimen C 150 mg BID, fast, Day 7): ~182 ng/mL
- half-life at 7 days (human, plasma, 150 mg, PD patients, Regimen C 150 mg BID, fast, Day 7, read-out: T1/2 (geometric mean) (converted)): 14.1 h
- Tmax at 7 days (human, plasma, 150 mg, PD patients, Regimen C 150 mg BID, fast, Day 7, read-out: Tmax (median)): 1 h
- Tmax at 7 days (human, plasma, 150 mg, PD patients, Regimen C 150 mg BID, fast, Day 7, read-out: Tmax (range)): 1 to 1.5 h
- AUC (human, plasma, 150 mg, PD patients, Regimen C 150 mg BID, fast, Day 7, tau 12 h): ~297 ng·h/mL
- concentration at 12 h (human, plasma, 150 mg, PD patients, Regimen C 150 mg BID, fast, Day 7, tau 12 h, read-out: Ctau (geometric mean)): 4.05 ng/mL
- half-life (human, plasma, 150 mg, patient, 150 mg once daily for 7 consecutive days, fed conditions as printed, day 7, read-out: T½ of anle138b (clause 14) (converted)): ~11.7 h
- Cmax (human, plasma, 300 mg, PD patients, Regimen B 300 mg QD (row prints fed, title fasted state), Day 1): ~933 ng/mL
- Tmax (human, plasma, 300 mg, PD patients, Regimen B 300 mg QD (row prints fed, title fasted state), Day 1, read-out: Tmax (median)): 1.5 h
- Tmax (human, plasma, 300 mg, PD patients, Regimen B 300 mg QD (row prints fed, title fasted state), Day 1, read-out: Tmax (range)): 1 to 4 h
- AUC (human, plasma, 300 mg, PD patients, Regimen B 300 mg QD (row prints fed, title fasted state), Day 1, tau 24 h): ~2500 ng·h/mL
- concentration at 24 h (human, plasma, 300 mg, PD patients, Regimen B 300 mg QD (row prints fed, title fasted state), Day 1, tau 24 h, read-out: Ctau (geometric mean)): 6.81 ng/mL
- Cmax (human, plasma, 300 mg, PD patients, Regimen B 300 mg QD (row prints fed, title fasted state), Day 7): ~365 ng/mL
- Tmax at 7 days (human, plasma, 300 mg, PD patients, Regimen B 300 mg QD (row prints fed, title fasted state), Day 7, read-out: Tmax (median)): 1.5 h
- Tmax at 7 days (human, plasma, 300 mg, PD patients, Regimen B 300 mg QD (row prints fed, title fasted state), Day 7, read-out: Tmax (range)): 1 to 2 h
- AUC (human, plasma, 300 mg, PD patients, Regimen B 300 mg QD (row prints fed, title fasted state), Day 7, tau 24 h): ~722 ng·h/mL
- concentration at 24 h (human, plasma, 300 mg, PD patients, Regimen B 300 mg QD (row prints fed, title fasted state), Day 7, tau 24 h, read-out: Ctau (geometric mean)): 3.19 ng/mL
- half-life at 7 days (human, plasma, 300 mg, PD patients, Regimen B 300 mg QD, Day 7, read-out: T1/2 (geometric mean) (converted)): 11.8 h
- half-life (human, plasma, 300 mg, PD patients, Regimen B 300 mg single dose on Day 9, fed state, n = 4, read-out: T1/2 (geometric mean) (converted)): 13 h
- AUC(0-t) (human, plasma, 300 mg, PD patients, Regimen B 300 mg single dose on Day 9, fed state, read-out: AUC(0-24) (geometric mean)): 795 ng·h/mL
- AUC(0-t) (human, plasma, 300 mg, PD patients, Regimen B 300 mg single dose on Day 9, fed state, read-out: AUC(0-last) (geometric mean)): 831 ng·h/mL
- concentration at 24 h (human, plasma, 300 mg, PD patients, Regimen B 300 mg single dose on Day 9, fed state, read-out: C24 (geometric mean)): 2.88 ng/mL
- Cmax (human, plasma, 300 mg, PD patients, Regimen B 300 mg single dose on Day 9, fed state): 231 ng/mL
- Tmax (human, plasma, 300 mg, PD patients, Regimen B 300 mg single dose on Day 9, fed state, read-out: Tmax (median)): 3 h
- Tmax (human, plasma, 300 mg, PD patients, Regimen B 300 mg single dose on Day 9, fed state, read-out: Tmax (range)): 3 to 4 h
- AUC(0-inf) (human, plasma, PD patients, Regimen A 150 mg single dose on Day 9, fed state, n = 3): 599 ng·h/mL
- AUC(0-inf) (human, plasma, PD patients, Regimen B 300 mg single dose on Day 9, fed state, n = 4): 826 ng·h/mL
- concentration at 3 h (human, plasma, 300 mg, PD patients, multiple QD oral doses of 300 mg, fasted, 3 h post-dose on Day 5, read-out: plasma anle138b concentration (geometric mean)): 133 ng/mL
